Results as given in patent US20230085307A1, “PYRIDAZINONE COMPOUND AND HERBICIDE” (NISSAN CHEMICAL CORPORATION, priority 2019, published 2023).

Assays:
late watergrass = test: Test Example 1: herbicidal activity, application before weed generation under submerged conditions (Table 16, symbol A); type: in vivo, late watergrass (Echinochloa oryzicola); details: 320 g/ha applied herbicide
Outline: (§1)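 Emulsion formulation, water-diluted to set dose, was put onto the flooded surface (4 cm depth, alluvial soil) the same day weeds were sown and 2.5-leaf rice transplanted. After 3 weeks at 25-30 °C under glass, each species was rated 0 (≤5% kill) to 5 (≥90% kill).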

Japanese bulrush = test: Test Example 1: herbicidal activity, application before weed generation under submerged conditions (Table 16, symbol B); type: in vivo, Japanese bulrush (Schoenoplectus juncoides); details: 320 g/ha applied herbicide
Outline: as §1

oval-leafed pondweed = test: Test Example 1: herbicidal activity, application before weed generation under submerged conditions (Table 16, symbol C); type: in vivo, oval-leafed pondweed (Monochoria vaginalis); details: 320 g/ha applied herbicide
Outline: as §1

barnyard grass [1] = test: Test Example 3: herbicidal effect by foliage application, Wagner pot (Table 18, symbol H); type: in vivo, barnyard grass (Echinochloa crus-galli); details: amount of applied herbicide 320 g/ha
Outline: (§2)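 Plants were sown in alluvial soil held under 0.1–0.5 cm standing water and grown 14 days in a greenhouse at 25–30 °C. An emulsifiable formulation, water-diluted to the set dose, was then sprayed onto the foliage, and effects were scored three weeks later using previously defined criteria.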

Chinese sprangletop = test: Test Example 3: herbicidal effect by foliage application, Wagner pot (Table 18, symbol D); type: in vivo, chinese sprangletop (Leptochloa chinensis); details: amount of applied herbicide 320 g/ha
Outline: as §2

rice flat sedge = test: Test Example 3: herbicidal effect by foliage application, Wagner pot (Table 18, symbol E); type: in vivo, rice flat sedge (Cyperus iria); details: amount of applied herbicide 320 g/ha
Outline: as §2

southern crabgrass [2] = test: Test Example 4: herbicidal effect by soil treatment (Table 19, symbol F); type: in vivo, southern crabgrass (Digitaria ciliaris); details: amount of applied herbicide 320 g/ha
Outline: (§3)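 Seeds were sown in sterilized diluvial soil and covered with about 1.5 cm of soil. An emulsion formulation diluted with water to a predetermined herbicide amount was sprayed evenly onto the soil surface. Plants grew in a greenhouse at 25° C. to 30° C., and the effect was scored three weeks after application using criteria from an earlier test.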

green foxtail [3] = test: Test Example 4: herbicidal effect by soil treatment (Table 19, symbol G); type: in vivo, green foxtail (Setaria viridis); details: amount of applied herbicide 320 g/ha
Outline: as §3

barnyard grass [4] = test: Test Example 4: herbicidal effect by soil treatment (Table 19, symbol H); type: in vivo, barnyard grass (Echinochloa crus-galli); details: amount of applied herbicide 320 g/ha
Outline: as §3

wild oat [5] = test: Test Example 4: herbicidal effect by soil treatment (Table 19, symbol I); type: in vivo, wild oat (Avena fatua); details: amount of applied herbicide 320 g/ha
Outline: as §3

blackgrass [6] = test: Test Example 4: herbicidal effect by soil treatment (Table 19, symbol J); type: in vivo, blackgrass (Alopecurus myosuroides); details: amount of applied herbicide 320 g/ha
Outline: as §3

Italian ryegrass [7] = test: Test Example 4: herbicidal effect by soil treatment (Table 19, symbol K); type: in vivo, Italian ryegrass (Lolium multiflorum); details: amount of applied herbicide 320 g/ha
Outline: as §3

windgrass [8] = test: Test Example 4: herbicidal effect by soil treatment (Table 19, symbol L); type: in vivo, windgrass (Apera spica-venti); details: amount of applied herbicide 320 g/ha
Outline: as §3

velvetleaf [9] = test: Test Example 4: herbicidal effect by soil treatment (Table 19, symbol M); type: in vivo, velvetleaf (Abutilon theophrasti); details: amount of applied herbicide 320 g/ha
Outline: as §3

redroot pigweed [10] = test: Test Example 4: herbicidal effect by soil treatment (Table 19, symbol N); type: in vivo, redroot pigweed (Amaranthus retroflexus); details: amount of applied herbicide 320 g/ha
Outline: as §3

lambsquarters [11] = test: Test Example 4: herbicidal effect by soil treatment (Table 19, symbol O); type: in vivo, lambsquarters (Chenopodium album); details: amount of applied herbicide 320 g/ha
Outline: as §3

chickweed [12] = test: Test Example 4: herbicidal effect by soil treatment (Table 19, symbol P); type: in vivo, common chickweed (Stellaria media); details: amount of applied herbicide 320 g/ha
Outline: as §3

false cleavers = test: Test Example 4: herbicidal effect by soil treatment (Table 19, symbol Q); type: in vivo, false cleavers (Galium spurium); details: amount of applied herbicide 320 g/ha
Outline: as §3

persian speedwell [13] = test: Test Example 4: herbicidal effect by soil treatment (Table 19, symbol R); type: in vivo, Persian speedwell (Veronica persica); details: amount of applied herbicide 320 g/ha
Outline: as §3

southern crabgrass [14] = test: Test Example 5: herbicidal effect by foliage application, plastic box (Table 20, symbol F); type: in vivo, southern crabgrass (Digitaria ciliaris); details: foliage application, 320 g/ha, evaluated three weeks after application
Outline: (§4)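 Plants sown in sterilized diluvial soil and grown 14 days in a greenhouse at 25° C to 30° C, then sprayed on the foliage with the compound's emulsion diluted in water to a predetermined herbicide amount. Injury to weeds and crops scored three weeks after application on a visual rating scale.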

green foxtail [15] = test: Test Example 5: herbicidal effect by foliage application, plastic box (Table 20, symbol G); type: in vivo, green foxtail (Setaria viridis); details: foliage application, 320 g/ha, evaluated three weeks after application
Outline: as §4

barnyard grass [16] = test: Test Example 5: herbicidal effect by foliage application, plastic box (Table 20, symbol H); type: in vivo, barnyard grass (Echinochloa crus-galli); details: foliage application, 320 g/ha, evaluated three weeks after application
Outline: as §4

wild oat [17] = test: Test Example 5: herbicidal effect by foliage application, plastic box (Table 20, symbol I); type: in vivo, wild oat (Avena fatua); details: foliage application, 320 g/ha, evaluated three weeks after application
Outline: as §4

blackgrass [18] = test: Test Example 5: herbicidal effect by foliage application, plastic box (Table 20, symbol J); type: in vivo, blackgrass (Alopecurus myosuroides); details: foliage application, 320 g/ha, evaluated three weeks after application
Outline: as §4

Italian ryegrass [19] = test: Test Example 5: herbicidal effect by foliage application, plastic box (Table 20, symbol K); type: in vivo, Italian ryegrass (Lolium multiflorum); details: foliage application, 320 g/ha, evaluated three weeks after application
Outline: as §4

windgrass [20] = test: Test Example 5: herbicidal effect by foliage application, plastic box (Table 20, symbol L); type: in vivo, windgrass (Apera spica-venti); details: foliage application, 320 g/ha, evaluated three weeks after application
Outline: as §4

velvetleaf [21] = test: Test Example 5: herbicidal effect by foliage application, plastic box (Table 20, symbol M); type: in vivo, velvetleaf (Abutilon theophrasti); details: foliage application, 320 g/ha, evaluated three weeks after application
Outline: as §4

redroot pigweed [22] = test: Test Example 5: herbicidal effect by foliage application, plastic box (Table 20, symbol N); type: in vivo, redroot pigweed (Amaranthus retroflexus); details: foliage application, 320 g/ha, evaluated three weeks after application
Outline: as §4

lambsquarters [23] = test: Test Example 5: herbicidal effect by foliage application, plastic box (Table 20, symbol O); type: in vivo, lambsquarters (Chenopodium album); details: foliage application, 320 g/ha, evaluated three weeks after application
Outline: as §4

chickweed [24] = test: Test Example 5: herbicidal effect by foliage application, plastic box (Table 20, symbol P); type: in vivo, common chickweed (Stellaria media); details: foliage application, 320 g/ha, evaluated three weeks after application
Outline: as §4

persian speedwell [25] = test: Test Example 5: herbicidal effect by foliage application, plastic box (Table 20, symbol R); type: in vivo, Persian speedwell (Veronica persica); details: foliage application, 320 g/ha, evaluated three weeks after application
Outline: as §4

Which “Herbicidal effect on A: late watergrass (grade 0-5)” value (late watergrass) does the source give for `COCC(=O)Nc1ccc2sc(-c3ccc(F)cc3OC)c(-c3c(O)c(C)nn(C)c3=O)c2c1` [2-179] here?
Its value is 3 (Herbicidal rate of 40% or more and less than 70%).

What about the “Herbicidal effect on B: Japanese bulrush (grade 0-5)” value (Japanese bulrush) of the same molecule?
Its value is 0 (Herbicidal rate of 5% or less (almost no effect)).

And the “Herbicidal effect on C: oval-leafed pondweed (grade 0-5)” value (oval-leafed pondweed)?
Its value is 0 (Herbicidal rate of 5% or less (almost no effect)).

And the “herbicidal effect on H: barnyard grass” value (barnyard grass [1])?
The value was 2 (Herbicidal rate of 20% or more and less than 40%).

And the “herbicidal effect on D: Chinese sprangletop” value (Chinese sprangletop)?
The value was 2 (Herbicidal rate of 20% or more and less than 40%).

What about the “herbicidal effect on E: rice flat sedge” value (rice flat sedge) of the same molecule?
Its value is 4 (Herbicidal rate of 70% or more and less than 90%).

And the “F: southern crabgrass, herbicidal effect rating” value (southern crabgrass [2])?
Its value is 0 (Herbicidal rate of 5% or less (almost no effect)).

What about the “G: green foxtail, herbicidal effect rating” value (green foxtail [3]) of the same molecule?
The value was 0 (Herbicidal rate of 5% or less (almost no effect)).

And the “H: barnyard grass, herbicidal effect rating” value (barnyard grass [4])?
Its value is 0 (Herbicidal rate of 5% or less (almost no effect)).

And the “I: wild oat, herbicidal effect rating” value (wild oat [5])?
Its value is 0 (Herbicidal rate of 5% or less (almost no effect)).

And the “J: blackgrass, herbicidal effect rating” value (blackgrass [6])?
Its value is 0 (Herbicidal rate of 5% or less (almost no effect)).

And the “K: Italian ryegrass, herbicidal effect rating” value (Italian ryegrass [7])?
Its value is 0 (Herbicidal rate of 5% or less (almost no effect)).

What about the “L: windgrass, herbicidal effect rating” value (windgrass [8]) of the same molecule?
Its value is 0 (Herbicidal rate of 5% or less (almost no effect)).

And the “M: velvetleaf, herbicidal effect rating” value (velvetleaf [9])?
Its value is 0 (Herbicidal rate of 5% or less (almost no effect)).

And the “N: redroot pigweed, herbicidal effect rating” value (redroot pigweed [10])?
Its value is 2 (Herbicidal rate of 20% or more and less than 40%).

What about the “O: lambsquarters, herbicidal effect rating” value (lambsquarters [11]) of the same molecule?
The value was 3 (Herbicidal rate of 40% or more and less than 70%).

What about the “P: chickweed, herbicidal effect rating” value (chickweed [12]) of the same molecule?
The value was 3 (Herbicidal rate of 40% or more and less than 70%).

And the “Q: false cleavers, herbicidal effect rating” value (false cleavers)?
The value was 0 (Herbicidal rate of 5% or less (almost no effect)).

And the “R: persian speedwell, herbicidal effect rating” value (persian speedwell [13])?
Its value is 3 (Herbicidal rate of 40% or more and less than 70%).

And the “herbicidal effect on F: southern crabgrass (criteria 0-5)” value (southern crabgrass [14])?
The value was 0 (Herbicidal rate of 5% or less (almost no effect)).

And the “herbicidal effect on G: green foxtail (criteria 0-5)” value (green foxtail [15])?
The value was 0 (Herbicidal rate of 5% or less (almost no effect)).

And the “herbicidal effect on H: barnyard grass (criteria 0-5)” value (barnyard grass [16])?
Its value is 0 (Herbicidal rate of 5% or less (almost no effect)).

And the “herbicidal effect on I: wild oat (criteria 0-5)” value (wild oat [17])?
Its value is 0 (Herbicidal rate of 5% or less (almost no effect)).

And the “herbicidal effect on J: blackgrass (criteria 0-5)” value (blackgrass [18])?
Its value is 0 (Herbicidal rate of 5% or less (almost no effect)).

What about the “herbicidal effect on K: Italian ryegrass (criteria 0-5)” value (Italian ryegrass [19]) of the same molecule?
The value was 0 (Herbicidal rate of 5% or less (almost no effect)).

And the “herbicidal effect on L: windgrass (criteria 0-5)” value (windgrass [20])?
Its value is 0 (Herbicidal rate of 5% or less (almost no effect)).

What about the “herbicidal effect on M: velvetleaf (criteria 0-5)” value (velvetleaf [21]) of the same molecule?
Its value is 1 (Herbicidal rate of 5% or more and less than 20%).

And the “herbicidal effect on N: redroot pigweed (criteria 0-5)” value (redroot pigweed [22])?
The value was 3 (Herbicidal rate of 40% or more and less than 70%).

And the “herbicidal effect on O: lambsquarters (criteria 0-5)” value (lambsquarters [23])?
The value was 2 (Herbicidal rate of 20% or more and less than 40%).

What about the “herbicidal effect on P: chickweed (criteria 0-5)” value (chickweed [24]) of the same molecule?
Its value is 5 (Herbicidal rate of 90% or more (almost completely withered)).

What about the “herbicidal effect on R: persian speedwell (criteria 0-5)” value (persian speedwell [25]) of the same molecule?
Its value is 3 (Herbicidal rate of 40% or more and less than 70%).
